According to ChEMBL document CHEMBL1139987 (Bioorg Med Chem Lett, 2007):

Key:
[1] = system: MCF7; test: Inhibition of IGF1 mediated cell growth in MCF7 cells; details: Homo sapiens
[2] = biological target: T1, Polyunsaturated fatty acid lipoxygenase ALOX15 (Homo sapiens, UniProt P16050)
T1 sequence (P16050 whole entry): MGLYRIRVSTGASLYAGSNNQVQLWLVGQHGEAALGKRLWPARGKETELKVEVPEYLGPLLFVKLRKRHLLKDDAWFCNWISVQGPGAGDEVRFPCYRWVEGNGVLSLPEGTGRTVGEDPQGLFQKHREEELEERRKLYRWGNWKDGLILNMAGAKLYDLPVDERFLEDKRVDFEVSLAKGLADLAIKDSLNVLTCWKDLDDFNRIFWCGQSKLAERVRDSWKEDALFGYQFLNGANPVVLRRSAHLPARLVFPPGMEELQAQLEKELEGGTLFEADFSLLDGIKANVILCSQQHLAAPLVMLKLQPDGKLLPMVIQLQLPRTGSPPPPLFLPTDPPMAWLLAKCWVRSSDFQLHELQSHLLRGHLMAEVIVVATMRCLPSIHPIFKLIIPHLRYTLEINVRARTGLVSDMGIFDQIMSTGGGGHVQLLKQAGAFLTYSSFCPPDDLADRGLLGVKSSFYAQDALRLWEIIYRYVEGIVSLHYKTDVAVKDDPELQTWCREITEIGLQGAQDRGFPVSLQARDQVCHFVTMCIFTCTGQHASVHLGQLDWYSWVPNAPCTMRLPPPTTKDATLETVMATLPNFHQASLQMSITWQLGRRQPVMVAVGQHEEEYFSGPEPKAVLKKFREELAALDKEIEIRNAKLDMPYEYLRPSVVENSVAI

[3] = biological target: Insulin-like growth factor 1 receptor (Homo sapiens, UniProt P08069); test: Inhibition of IGF1R
Chain of Insulin-like growth factor 1 receptor (P08069 31-736 limits assumed): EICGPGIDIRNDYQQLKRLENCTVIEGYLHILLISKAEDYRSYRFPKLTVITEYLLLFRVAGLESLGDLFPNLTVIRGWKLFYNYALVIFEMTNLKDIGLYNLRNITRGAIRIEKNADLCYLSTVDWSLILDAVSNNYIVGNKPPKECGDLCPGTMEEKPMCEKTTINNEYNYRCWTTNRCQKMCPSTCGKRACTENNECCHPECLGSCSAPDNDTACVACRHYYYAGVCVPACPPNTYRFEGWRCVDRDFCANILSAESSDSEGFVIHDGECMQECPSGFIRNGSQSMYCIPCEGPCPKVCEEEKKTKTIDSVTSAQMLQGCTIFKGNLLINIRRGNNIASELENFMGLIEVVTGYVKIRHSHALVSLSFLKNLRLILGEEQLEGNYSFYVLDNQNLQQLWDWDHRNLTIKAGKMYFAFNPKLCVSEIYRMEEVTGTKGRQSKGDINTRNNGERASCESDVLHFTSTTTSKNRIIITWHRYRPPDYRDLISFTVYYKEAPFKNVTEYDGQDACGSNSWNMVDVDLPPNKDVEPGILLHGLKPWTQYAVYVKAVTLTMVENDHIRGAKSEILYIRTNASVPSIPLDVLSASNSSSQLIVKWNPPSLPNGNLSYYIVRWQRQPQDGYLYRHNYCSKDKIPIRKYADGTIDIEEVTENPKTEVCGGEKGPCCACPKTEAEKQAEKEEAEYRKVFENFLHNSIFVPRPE
Chain of Insulin-like growth factor 1 receptor (P08069 741-1367 limits assumed): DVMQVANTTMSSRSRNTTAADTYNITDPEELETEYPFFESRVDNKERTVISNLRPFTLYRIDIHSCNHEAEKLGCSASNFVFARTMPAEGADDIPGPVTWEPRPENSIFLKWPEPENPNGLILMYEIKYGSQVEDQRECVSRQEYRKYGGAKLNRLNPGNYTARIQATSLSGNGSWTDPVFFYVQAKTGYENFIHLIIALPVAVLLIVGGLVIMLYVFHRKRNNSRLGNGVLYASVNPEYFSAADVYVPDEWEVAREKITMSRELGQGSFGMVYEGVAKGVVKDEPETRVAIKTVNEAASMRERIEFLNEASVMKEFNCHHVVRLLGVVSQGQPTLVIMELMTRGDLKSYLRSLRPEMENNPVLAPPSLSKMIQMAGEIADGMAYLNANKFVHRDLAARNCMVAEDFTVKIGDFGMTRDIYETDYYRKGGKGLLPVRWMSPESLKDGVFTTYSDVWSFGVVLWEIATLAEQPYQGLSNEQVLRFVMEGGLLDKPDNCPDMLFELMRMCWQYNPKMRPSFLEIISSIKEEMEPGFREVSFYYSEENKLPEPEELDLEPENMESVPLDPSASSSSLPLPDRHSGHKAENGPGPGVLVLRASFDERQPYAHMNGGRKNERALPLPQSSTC

Structure (SMILES)	IC50 [1] [µM]	IC50 [2] [µM]	IC50 [3] [µM]
CC(Cc1ccc(O)c(O)c1)C(C)Cc1ccc(O)c(O)c1 (stereo not drawn) [NORDIHYDROGUAIARETIC ACID]	24.6	–	–
Oc1ccc(CCCCc2ccc(O)c(O)c2)cc1	36.2	9.4	1
Oc1ccc(CCCCc2ccccc2)cc1O	11.2	7.3	–
Oc1cc2c(cc1O)C(c1ccccc1)CCC2 (stereo not drawn)	12.3	–	1
Cc1ccc(CCCCc2ccc(O)c(O)c2)cc1	15.1	–	0.8
Oc1ccc(CCCCc2ccc(Cl)cc2)cc1O	13.4	–	0.8
Oc1ccc(CCCCc2ccc(O)c(O)c2)cc1O	25.4	3.9	0.6
Oc1ccc(CCCCc2ccc(Cl)c(Cl)c2)cc1O	21.5	–	1
COc1ccc(CCCCc2ccc(O)c(O)c2)cc1	15.7	–	–
